Reference: paper PMC9419673 (Nanoscale Advances, 2021)

Key:
[1] = Solubility in aqueous buffer; type: physicochemical; details: pH 7.4, aqueous buffer
[2] = Analytical RP-HPLC retention as a measure of hydrophobicity; type: physicochemical; details: longer retention time compared to native EETI-II, Fig. 1

Question: Which results are given for CCCCCCCCCCCCCCCC(=O)NCCCC[C@H](N)C(=O)NCC(=O)N[C@@H](CO)C(=O)NCC(=O)N[C@@H](CO)C(=O)NCC(=O)N[C@H]1CSSC[C@@H]2NC(=O)CNC(=O)[C@H](C)NC(=O)[C@H](CC(C)C)NC(=O)[C@@H]3CSSC[C@@H](C(=O)NCC(=O)O)NC(=O)[C@H](Cc4ccccc4)NC(=O)CNC(=O)[C@H](CC(N)=O)NC(=O)[C@@H]4CCCN4C(=O)CNC(=O)[C@H](CSSC[C@H](NC(=O)[C@H](CCCNC(=N)N)NC(=O)[C@H](CCSC)NC(=O)[C@H](CC(C)C)NC(=O)[C@H]([C@@H](C)CC)NC(=O)[C@H](CCCNC(=N)N)NC(=O)[C@@H]4CCCN4C1=O)C(=O)N[C@@H](CCCCN)C(=O)N[C@@H](CCC(N)=O)C(=O)N[C@@H](CC(=O)O)C(=O)N[C@@H](CO)C(=O)N[C@@H](CC(=O)O)C(=O)N3)NC(=O)[C@H](C(C)C)NC2=O [CKP-C16, EETI-II-C16]?
Answer: solubility [1]: > 500 µM; hydrophobicity by analytical RP-HPLC retention time (in words) [2]: more hydrophobic than EETI-II (CKP)
